Patent US12274751B2, “Composition and method of the use of colchicine oral liquid” (priority 2016, dated 2025)

Experiments:
in vitro = settings: human, Caco-2
Method: To verify the Caco-2 cell monolayers were properly formed, aliquots of the cell buffers were analyzed by fluorescence to determine the transport of the impermeable dye Lucifer Yellow.

[1] = Stability of colchicine solution, colchicine assay (% label claim); assay type: physicochemical; settings: API (colchicine drug substance), calculated on the anhydrous, solvent-free basis
Method: The colchicine solution is formulated and assayed for colchicine levels. Stability of the claimed formulation was tested at room temperature, 30° C., and 40° C. and assayed for the colchicine. […] The fact that the oral solution was so stable after 6 months at an accelerated temperature (40 degrees Celsius, which corresponds to 24 months at room temperature) was quite surprising. Solutions of colchicine for oral administration to humans have not been developed because they were believed to be too unstable. The data presented herein show for the first time that an oral colchicine solution can remain stable with minimal degradants and thus have a long shelf life consistent with commercial formulations.
The colchicine solution in Table 4 was packaged in a 190 mL HDPE bottle and assayed by HPLC cUSP.
The label claim of the liquid solution is 0.12 mg/ml and the assay results of the active ingredient are reported as percent of label claim. For instance, the label claim of an exemplary colchicine solution of the invention is 0.12 mg/ml. The FDA requirement for stability results for drugs is 90-110% label claim.

[2] = in the presence of glycerin; Habib et al. 1989; cited from earlier work

| Structure (SMILES) | Papp A→B (in vitro) [×10⁻⁶ cm/s] | Papp B→A (in vitro) [×10⁻⁶ cm/s] | Stability Results (% Label Claim) [1] [% Label Claim] | loss by photodegradation in solution [2] [%] |
| --- | --- | --- | --- | --- |
| COCCc1ccc(OCC(O)CNC(C)C)cc1 (centres unmarked) [metoprolol] | 13.7 | 27.2 | – | – |
| COc1cc2c(c(OC)c1OC)-c1ccc(OC)c(=O)cc1[C@@H](NC(C)=O)CC2 [Colchicine, (−)-N-[(7S,12aS)-1,2,3,10-tetramethoxy-9-oxo-5,6,7,9-tetrahydrobenzo[a]heptalen-7-yl]-acetamide] | – | – | 91.8 | ≤ 50 |
| CNC(=C[N+](=O)[O-])NCCSCc1ccc(CN(C)C)o1 [ranitidine] | 0.27 | – | – | – |
